Measurements: patent US8397806B2, “Method for pre-treatment of subterranean sites adjacent to water injection wells” (E.I. du Pont de Nemours and Company, priority 2010, dated 2013)

Key:
[1] = Example 2: 1N HCl titration of amine-coated core sand (38 mg amine on 10.18 gr sand) in 100 ml brine #2, amine in solution by GC; type: physicochemical
Description: Helium was used as the carrier gas.
38 milligrams (mg) of N N-Dimethyl-1-Dodecanamine (hereafter referred to as “the amine”) was added to 10.210 gr of Pentane. This solution was added to 10.1845 gr of specific sand layers (Oa and Ob) obtained from the Schrader Bluff formation of the Milne Point Unit of the Alaskan North slope. The oil content of the sand was first removed using a mixture of methanol and toluene (50/50, volume/volume) as solvent washes. The solvent mixture was subsequently evaporated off the core sand to produce clean, dry, flowable core sand. This sand was mixed with the amine and pentane solution to produce a slurry. This slurry was thoroughly mixed and the pentane was evaporated off leaving the amine on the sand (hereafter referred to as sand/amine mixture). 100 ml of brine #2 (Table 3) was added to the sand/amine mixture to create the sand/amine/brine mixture. […] The fact that the amine was not detected underlined its strong binding to the sand particles. […] The data underlines the remarkable efficiency of an acid at ionizing and removing the amine from the sand.

[2] = Example 4: 10% nitric acid titration of amine-coated core sand (29.065 gr sand/amine mixture) in 100 ml brine #2, amine in solution by GC
Description: (§1) Concentration of amines, in media and water, were analyzed by gas chromatography (GC). An Agilent Model 5890 (Agilent, Wilmington, Del.), GC equipped with a […] and a split/splitless injector, a DB-FFAP column (30 meter length×0.32 millimeter (mm) […]×0.25 micrometer particle size). […] The system was calibrated using a sample of N,N-Dimethyl-1-Dodecaneamine (Aldrich). Helium was used as the carrier gas. A temperature gradient of 50 degrees Celsius (° C.) to 250° C. at 30° C. increase per minute (min) was used.
The procedure outlined in Example 2 was used to produce the sand/amine mixture except that 519 mg of the amine, 10 gr of Pentane. and 60.062 gr of sand from the Oa and Ob layers were used. 29.065 gr of this sand/amine mixture was added to 100 ml of brine #2 (Table 3) to create the sand/amine/brine mixture. […] The concentration of the amine in the water should have been about […] if all the amine was dissolved in brine #2. […] 0.1 ml of 10 weight percent (wt %) nitric acid in water was added to this solution, and the pH and the amine concentration were measured again.

[3] = Example 5: 10% acetic acid titration of amine-coated core sand (30.85 gr sand/amine mixture) in 100 ml brine #2, amine in solution by GC
Description: as §1
The same procedure outlined in Example 4 was repeated here to produce the sand/amine mixture. 30.85 grams (gr) of the sand/amine mixture was added to 100 ml of brine #2 (Table 3) to create the sand/amine/brine mixture.

## CCCCCCCCCCCCN(C)C [N-N-dimethyl-1-dodeanamine, N N-Dimethyl-1-Dodecanamine]
[1]; sample Amine titrate 1, pH 7.37
  First derivative (change in amine/change in pH): 63.75
[1]; sample Amine titrate 1, pH 7.37, +0.10 ml 1N HCl
  N-N-dimethyl-1-dodeanamine (ppm) in slim tube effluent: 46.41 ppm
[1]; sample Amine titrate 2, pH 7.21
  First derivative (change in amine/change in pH): 63.42
[1]; sample Amine titrate 2, pH 7.21, +0.10 ml 1N HCl
  N-N-dimethyl-1-dodeanamine (ppm) in slim tube effluent: 59.29 ppm
[1]; sample Amine titrate 3, pH 7.03
  First derivative (change in amine/change in pH): 24.34
[1]; sample Amine titrate 3, pH 7.03, +0.10 ml 1N HCl
  N-N-dimethyl-1-dodeanamine (ppm) in slim tube effluent: 67.97 ppm
[1]; sample Amine titrate 4, pH 6.59
  First derivative (change in amine/change in pH): 160.35
[1]; sample Amine titrate 4, pH 6.59, +0.10 ml 1N HCl
  N-N-dimethyl-1-dodeanamine (ppm) in slim tube effluent: 74.38 ppm
[1]; sample Amine titrate 5, pH 6.13
  First derivative (change in amine/change in pH): 412.18
[1]; sample Amine titrate 5, pH 6.13, +0.10 ml 1N HCl
  N-N-dimethyl-1-dodeanamine (ppm) in slim tube effluent: 212.28 ppm
[1]; sample Amine titrate 6, pH 6.07
  First derivative (change in amine/change in pH): 679.86
[1]; sample Amine titrate 6, pH 6.07, +0.10 ml 1N HCl
  N-N-dimethyl-1-dodeanamine (ppm) in slim tube effluent: 288.72 ppm
[1]; sample Amine titrate 7, pH 6.04
  First derivative (change in amine/change in pH): −148.78
[1]; sample Amine titrate 7, pH 6.04, +0.05 ml 1N HCl
  N-N-dimethyl-1-dodeanamine (ppm) in slim tube effluent: 273.47 ppm
[1]; sample Amine titrate 8, pH 5.98
  First derivative (change in amine/change in pH): 119.35
[1]; sample Amine titrate 8, pH 5.98, +0.05 ml 1N HCl
  N-N-dimethyl-1-dodeanamine (ppm) in slim tube effluent: 275.33 ppm
[1]; sample Amine titrate 9, pH 5.79
  First derivative (change in amine/change in pH): 65.90
[1]; sample Amine titrate 9, pH 5.79, +0.05 ml 1N HCl
  N-N-dimethyl-1-dodeanamine (ppm) in slim tube effluent: 303.31 ppm
[1]; sample Amine titrate 10, pH 5.39
  First derivative (change in amine/change in pH): 15.17
[1]; sample Amine titrate 10, pH 5.39, +0.05 ml 1N HCl
  N-N-dimethyl-1-dodeanamine (ppm) in slim tube effluent: 314.21 ppm
[1]; sample Amine titrate 11, pH 4.13
  First derivative (change in amine/change in pH): 3.24
[1]; sample Amine titrate 11, pH 4.13, +0.05 ml 1N HCl
  N-N-dimethyl-1-dodeanamine (ppm) in slim tube effluent: 328.48 ppm
[1]; sample Amine titrate 12, pH 3.19
  First derivative (change in amine/change in pH): 11.80
[1]; sample Amine titrate 12, pH 3.19, +0.05 ml 1N HCl
  N-N-dimethyl-1-dodeanamine (ppm) in slim tube effluent: 321.33 ppm
[1]; sample Amine titrate 13, pH 2.91
  First derivative (change in amine/change in pH): 47.42
[1]; sample Amine titrate 13, pH 2.91, +0.05 ml 1N HCl
  N-N-dimethyl-1-dodeanamine (ppm) in slim tube effluent: 342.88 ppm
[1]; sample Amine titrate 14, pH 2.74
  First derivative (change in amine/change in pH): −6.52
[1]; sample Amine titrate 14, pH 2.74, +0.05 ml 1N HCl
  N-N-dimethyl-1-dodeanamine (ppm) in slim tube effluent: 342.67 ppm
[1]; sample Amine titrate 15, pH 2.61
  First derivative (change in amine/change in pH): 79.86
[1]; sample Amine titrate 15, pH 2.61, +0.05 ml 1N HCl
  N-N-dimethyl-1-dodeanamine (ppm) in slim tube effluent: 340.92 ppm
[1]; sample Amine titrate 16, pH 2.41
  First derivative (change in amine/change in pH): 80.22
[1]; sample Amine titrate 16, pH 2.41, +0.10 ml 1N HCl
  N-N-dimethyl-1-dodeanamine (ppm) in slim tube effluent: 369.02 ppm
[1]; sample Amine titrate 17, pH 2.27
  First derivative (change in amine/change in pH): 2.25
[1]; sample Amine titrate 17, pH 2.27, +0.10 ml 1N HCl
  N-N-dimethyl-1-dodeanamine (ppm) in slim tube effluent: 368.19 ppm
[1]; sample Amine titrate 18, pH 2.18
  First derivative (change in amine/change in pH): 7.51
[1]; sample Amine titrate 18, pH 2.18, +0.10 ml 1N HCl
  N-N-dimethyl-1-dodeanamine (ppm) in slim tube effluent: 369.54 ppm
[1]; sample Amine titrate 19, pH 2.10
  First derivative (change in amine/change in pH): 0.12
[1]; sample Amine titrate 19, pH 2.10, +0.10 ml 1N HCl
  N-N-dimethyl-1-dodeanamine (ppm) in slim tube effluent: 369.47 ppm
[1]; sample Amine titrate 20, pH 2.04, +0.10 ml 1N HCl
  N-N-dimethyl-1-dodeanamine (ppm) in slim tube effluent: 369.56 ppm
[1]; sample Amine titrate st, pH 8.14, 0.00 ml 1N HCl
  N-N-dimethyl-1-dodeanamine (ppm) in slim tube effluent: 0.00 ppm
[1]; sample Amine titrate st, pH 8.14, 0.00 ml 1N HCl, listed as N N-Dimethyl-1-Dodecanamine
  N-N-dimethyl-1-dodeanamine (ppm) in slim tube effluent: < 1 ppm
[1]; titration with 1N HCl
  pH at which complete ionization and solubilization of the amine in the water was observed: < 6.0
[2]; sample 1, pH 8.13, +0.1 ml 10% HNO3
  ppm N-N-dimethyl-1-dodeanamine: 110 ppm
[2]; sample 2, pH 7.72, +0.1 ml 10% HNO3
  ppm N-N-dimethyl-1-dodeanamine: 211 ppm
[2]; sample 3, pH 7.42, +0.1 ml 10% HNO3
  ppm N-N-dimethyl-1-dodeanamine: 216 ppm
[2]; sample 4, pH 7.25, +0.1 ml 10% HNO3
  ppm N-N-dimethyl-1-dodeanamine: 235 ppm
[2]; sample 5, pH 7.2, +0.1 ml 10% HNO3
  ppm N-N-dimethyl-1-dodeanamine: 540 ppm
[2]; sample 6, pH 7.29, +0.1 ml 10% HNO3
  ppm N-N-dimethyl-1-dodeanamine: 745 ppm
[2]; sample 7, pH 7.33, +0.1 ml 10% HNO3
  ppm N-N-dimethyl-1-dodeanamine: 1153 ppm
[2]; sample 8, pH 7.29, +0.1 ml 10% HNO3
  ppm N-N-dimethyl-1-dodeanamine: 1210 ppm
[2]; sample 9, pH 7.18, +0.1 ml 10% HNO3
  ppm N-N-dimethyl-1-dodeanamine: 1327 ppm
[2]; sample 10, pH 7.11, +0.1 ml 10% HNO3
  ppm N-N-dimethyl-1-dodeanamine: 1315 ppm
[2]; sample 11, pH 6.99, +0.1 ml 10% HNO3
  ppm N-N-dimethyl-1-dodeanamine: 1413 ppm
[2]; sample 12, pH 6.85, +0.1 ml 10% HNO3
  ppm N-N-dimethyl-1-dodeanamine: 1667 ppm
[2]; sample 13, pH 6.73, +0.1 ml 10% HNO3
  ppm N-N-dimethyl-1-dodeanamine: 1897 ppm
[2]; sample 14, pH 6.64, +0.1 ml 10% HNO3
  ppm N-N-dimethyl-1-dodeanamine: 1853 ppm
[2]; sample 15, pH 6.59, +0.1 ml 10% HNO3
  ppm N-N-dimethyl-1-dodeanamine: 1858 ppm
[2]; sample 16, pH 6.28, +0.2 ml 10% HNO3
  ppm N-N-dimethyl-1-dodeanamine: 1788 ppm
[2]; sample 17, pH 5.8, +0.2 ml 10% HNO3
  ppm N-N-dimethyl-1-dodeanamine: 1822 ppm
[2]; sample 18, pH 3.46, +0.2 ml 10% HNO3
  ppm N-N-dimethyl-1-dodeanamine: 1975 ppm
[2]; sample start, pH 8.28, 0 ml 10% HNO3
  ppm N-N-dimethyl-1-dodeanamine: ~85 ppm
[2]; titration with 10 wt % nitric acid
  pH at which complete ionization and solubilization in the water of the amine was observed: < 6.7
[3]; sample 1, pH 8.01, +0.1 ml 10% acetic acid
  ppm N-N-dimethyl-1-dodeanamine: 63 ppm
[3]; sample 2, pH 7.41, +0.1 ml 10% acetic acid
  ppm N-N-dimethyl-1-dodeanamine: 107 ppm
[3]; sample 3, pH 7.4, +0.1 ml 10% acetic acid
  ppm N-N-dimethyl-1-dodeanamine: 215 ppm
[3]; sample 4, pH 7.37, +0.1 ml 10% acetic acid
  ppm N-N-dimethyl-1-dodeanamine: 497 ppm
[3]; sample 5, pH 7.23, +0.1 ml 10% acetic acid
  ppm N-N-dimethyl-1-dodeanamine: 512 ppm
[3]; sample 6, pH 7.12, +0.1 ml 10% acetic acid
  ppm N-N-dimethyl-1-dodeanamine: 969 ppm
[3]; sample 7, pH 6.98, +0.1 ml 10% acetic acid
  ppm N-N-dimethyl-1-dodeanamine: 1239 ppm
[3]; sample 8, pH 6.89, +0.1 ml 10% acetic acid
  ppm N-N-dimethyl-1-dodeanamine: 1453 ppm
[3]; sample 9, pH 6.75, +0.1 ml 10% acetic acid
  ppm N-N-dimethyl-1-dodeanamine: 1583 ppm
[3]; sample 10, pH 6.56, +0.1 ml 10% acetic acid
  ppm N-N-dimethyl-1-dodeanamine: 1579 ppm
[3]; sample 11, pH 6.39, +0.1 ml 10% acetic acid
  ppm N-N-dimethyl-1-dodeanamine: 1616 ppm
[3]; sample 12, pH 6.4, +0.1 ml 10% acetic acid
  ppm N-N-dimethyl-1-dodeanamine: 1759 ppm
[3]; sample 13, pH 6.02, +0.2 ml 10% acetic acid
  ppm N-N-dimethyl-1-dodeanamine: 1736 ppm
[3]; sample 14, pH 5.4, +0.2 ml 10% acetic acid
  ppm N-N-dimethyl-1-dodeanamine: 1718 ppm
[3]; sample 15, pH 5.04, +0.2 ml 10% acetic acid
  ppm N-N-dimethyl-1-dodeanamine: 1743 ppm
[3]; sample 16, pH 4.86, +0.2 ml 10% acetic acid
  ppm N-N-dimethyl-1-dodeanamine: 1931 ppm
[3]; sample 17, pH 4.73, +0.2 ml 10% acetic acid
  ppm N-N-dimethyl-1-dodeanamine: 1995 ppm
[3]; sample 18, pH 4.61, +0.2 ml 10% acetic acid
  ppm N-N-dimethyl-1-dodeanamine: 1913 ppm
[3]; sample 19, pH 4.52, +0.2 ml 10% acetic acid
  ppm N-N-dimethyl-1-dodeanamine: 1881 ppm
[3]; sample 20, pH 4.43, +0.2 ml 10% acetic acid
  ppm N-N-dimethyl-1-dodeanamine: 1837 ppm
[3]; sample 21, pH 4.36, +0.3 ml 10% acetic acid
  ppm N-N-dimethyl-1-dodeanamine: 1885 ppm
[3]; sample start, pH 8.52, 0 ml 10% acetic acid
  ppm N-N-dimethyl-1-dodeanamine: ~67 ppm
[3]; titration with 10 wt % acetic acid
  pH at which complete ionization and solubilization in the water of the amine was observed: < 6.7
